# ChEMBL document CHEMBL1137920, “Design and synthesis of 1-(4-benzoylphenyl)imidazole derivatives as new potent 20-HETE synthase inhibitors” (Bioorg Med Chem Lett, 2004)
# Test: Inhibitory activity against 20-Hydroxy-5,8,11,14-eicosatetraenoic acid synthase from arachidonic acid in human renal microsome
row,Compound,IC50 [µM]
1,Cc1cc(C(=O)c2ccc(-n3ccnc3)cc2)ccc1OCCCCCCCC(=O)O,0.044
2,Cc1cc(C(=O)c2ccc(-n3ccnc3)cc2)ccc1OCCCCC(=O)O,0.012
3,Cc1cc(C(=O)c2ccc(-n3ccnc3)cc2)ccc1OCCCCCCCCCC(=O)O,0.073
4,Cc1cc(C(=O)c2ccc(-n3ccnc3)cc2)ccc1OCCCCCCC(=O)O,0.022
5,Cc1cc(C(=O)c2ccc(-n3ccnc3)cc2)ccc1OCCCCCC(=O)O,0.0079

# Continued, values first:
row,IC50 [µM],Compound
1,8.38,Cc1ccc(OCCCCC(=O)O)c(C(=O)c2ccc(-n3ccnc3)cc2)c1
2,3.29,Cc1ccc(OCCCCCC(=O)O)c(C(=O)c2ccc(-n3ccnc3)cc2)c1
3,4.8,Cc1ccc(OCCCCCCCC(=O)O)c(C(=O)c2ccc(-n3ccnc3)cc2)c1
4,> 10,Cc1ccc(OCCCC(=O)O)c(C(=O)c2ccc(-n3ccnc3)cc2)c1
5,2.46,Cc1ccc(OCCCCCCC(=O)O)c(C(=O)c2ccc(-n3ccnc3)cc2)c1
6,6.74,Cc1ccc(OCCCCCCCCCC(=O)O)c(C(=O)c2ccc(-n3ccnc3)cc2)c1

# Test: Inhibitory activity against 20-Hydroxy-5,8,11,14-eicosatetraenoic acid synthase from arachidonic acid in human renal microsome
row,IC50 [µM],Compound
1,0.013,Cc1cc(C(=O)c2ccc(-n3ccnc3)cc2)ccc1OCCCC(=O)O

# Test: Inhibitory activity against 20-Hydroxy-5,8,11,14-eicosatetraenoic acid synthase from arachidonic acid in rat renal microsome
row,IC50 [µM],Compound
1,2,CS(=O)(=O)NC(=O)CCCCCCCCCC=C(Br)Br
2,2,O=C(O)CCCCCCCCCC=C(Br)Br
3,7.5,C#CCCCCCCCCCOS(=O)(=O)O
4,> 5,C#CCCCCCCCCCCCCCCCC(=O)O
5,0.31,O=C(c1ccccc1)c1ccc(-n2ccnc2)cc1
6,0.0352,CCCCc1ccc(/N=C/NO)c(C)c1
